The values below come from publication PMC10163008 (Nature Communications, 2023).

Series [1] relates to CHLA-20 cells (ALK R1275Q, parental). Kind of series: Cell viability assay (Cell Titer-Glo, 120 h). To be noted: cell viability after 120 h of treatment. Format: cell-based, human. On the technique in general: Cellular ATP, detected with luciferase, serves as a proxy for viable cell number.
The test system of series [2] is patients with ALK-driven relapsed/refractory neuroblastoma. Kind of series: Serial ctDNA profiling (FoundationACT / FoundationOne Liquid CDx) and clinical response in the NANT phase 1 lorlatinib trial. To be noted: Group 3 (ALK undetectable) patients, all responded.
Procedure: Optional blood sampling was prospectively performed at predefined time points including pretreatment, after courses 2,4,6, and then after every 4th course and at disease progression. Patients <18 years of age were treated across 5 dose levels (cohort A1).
Blood samples for circulating tumor DNA profiling were drawn prior to enrollment, after courses 2, 4, and 6, and then after every 4 courses of treatment for the duration of patient participation in the trial. Forty-six patients were evaluable for this ctDNA study.
16-20 ml of whole blood was drawn from each patient and sent to Foundation Medicine in Streck tubes for ctDNA profiling.
Sequencing data were analyzed for the presence of short variants (single base substitutions and short insertions/deletions), copy number amplifications and homozygous deletions, and detectable gene rearrangements. […]
For most samples, we were able to estimate the ctDNA quantity using the comprehensive tumor fraction (CTF) method, using established computational methods[46],[47]. For samples in which no ALK was detected, we analyzed CTF to determine if any ctDNA was found in the cell-free DNA sequenced. For samples where CTF could not be calculated, MSAF was manually assessed to determine the fraction of ctDNA content[48]. […]
For series [3], the system named is CHLA-20 cells with ALK R1275Q/G1202R (CRISPR, in cis). Kind of series: Cell viability assay (Cell Titer-Glo, 120 h). Format: cell-based, human.

“And” between values parts separate entries of the source, which are not always exact repeats. Equal values may be shown once.

Regarding `C[C@H]1Oc2cc(cnc2N)-c2c(nn(C)c2C#N)CN(C)C(=O)c2ccc(F)cc21` [lorlatinib, (10R)-7-amino-12-fluoro-2,10,16-trimethyl-15-oxo-10,15,16,17-tetrahydro-2H-8,4-(metheno)pyrazolo[4,3-h][2,5,11]-benzoxadiazacyclotetradecine-3-carbonitrile], the figures for the IC50 in series [1] and in series [3] (cell viability after 120 h of treatment) were 0.015 ± 0.004 µM and 0.318 ± 0.058 µM, respectively. In series [2], the duration of response is 4 to 48 cycles of therapy. For the same compound, in series [3] ([lorlatinib] 33, 120 h, exp #1-#9), the cell viability is 104.185 and 94.5372 and 95.8368 and 98.7284 and 103.246 and 102.304 and 104.304 and 98.5652.

Broadly, the IC50 is the concentration that inhibits the measured activity by half.
